According to US9504676B2, “Molecules inhibiting a metabolic pathway involving the Syk protein tyrosine kinase and method for identifying said molecules” (CENTRE NATIONAL DE LA RECHERCHE SCIENTIFIQUE, priority 2008, dated 2016):
≈ marks a conversion by molar mass, not a printed value.

Columns and labels:
[1] = tested on: BMMC cells; experiment: C-13 toxicity test on BMMC cells (Annexin-V and Propidium Iodide); type: cell-based; conditions: Staurosporine, 3 hours
Protocol: FIG. 10. Toxicity test of C-13 on BMMC cells. The BMMC cells were incubated at 37° C. in the presence of 2.5 μM or 5 μM of C-13, 0.25% DMF or Staurosporine. The percentages of live BMMC cells after 3 hours and after 5 days were detected by means of double Annexin-V and Propidium Iodide labelling. The viability of BMMC cells incubated in the presence of 2.5 μM or 5 μM of C-13 or 0.25% DMF was not affected to noteworthy degree after 3 hours (78%, 74% and 79% respectively) or five days (62, 56 and 57%, respectively). On the other hand, the viability of BMMC cells treated under the same conditions with Staurosporine was reduced to a level of 16% after only 3 hours.
• 1) Chemical products and antibodies. A chemical bank of 3000 molecules (a varied subset) was acquired from ChemBridge, Inc. (San Diego, Calif.). Stocks of solutions of small molecules were prepared at a rate of 10 mM in DMSO (dimethylsulphoxide), except for C-13 (methyl 2-{5-[(3-benzyl-4-oxo-2-thioxo-1,3-thiazolidin-5-ylidene)methyl]-2-furyl}benzoate, ChemBridge ID No. 6197026) prepared in DMF (dimethylformamide). Unless specified otherwise, all the reagents were supplied by Sigma. Dinitrophenyl (DNP) hapten was acquired from Calbiochem. Sepharose GammaBind G and all the secondary antibodies were supplied by GE Health Amersham Biosciences. The anti-Syk, anti-Lyn, anti-Btk, anti-PLC-γ1, anti-PLC-γ2, anti-LAT, anti-SLP-76, anti-p38, anti-JNK, anti-Vav, anti-Akt1 and 9E10 antibodies conjugated with HRP were acquired from Santa Cruz Biotechnology. The anti-phospho-p44/42 MAP Kinase, anti-p44/42 MAP Kinase, anti-phospho-p38, anti-phospho-JNK, anti-phospho-Akt1 antibodies were acquired from Cell Signaling. The anti-phospho-LAT and anti-phospho-PLC-γ1 antibodies were supplied by Biosource and the anti-phospho-SLP-76 antibodies by BD Pharmingen. The 4G10 anti-phosphotyrosine monoclonal antibody was acquired from Upstate Biotechnology. • 2) ADA method: ELISA type high-speed molecule screening test, based on antibody displacement (WO 2005106481). The recombinant fusion protein GST:Syk 6-242^8 comprising the residues 6 to 242 of murine Syk tyrosine kinase protein illustrated in FIG. 8B (SEQ ID No. 4) was immobilised on an ELISA plate at a final concentration of 10 μg ml^−1. For the screening of the chemical molecule bank, the small molecules, diluted in PBS at a final concentration of 10 μM were added to the wells for one hour at ambient temperature, before adding the fragment scFv G4G11 at a final concentration of 100 nM for an additional hour. The binding of G4G11 with Syk was assessed by adding the 9E10 monoclonal antibody conjugated with HRP detecting the amino acid sequence EQKLISEEDLN of human c-myc protein located at the C-terminal end of the scFv fragment. To generate Syk mutants, targeted mutagenesis was used on GST:Syk 6-242 protein and the binding of G4G11 with the mutants was assessed in the presence of 5 μM of C-13. • 3) Cells, culture conditions and functional tests. Anti-DNP 2682-I mouse monoclonal antibody was used as the culture supernatant of hybridomas containing 1 μg/ml of IgE. Femoral bone marrow cells were sampled and cultured in Opti-MEM medium (Gibco) supplemented with 10% foetal calf serum and 4% X63 transfectant supernatant secreting murine IL-3. RBL-2H3 (ATCC) leukaemic rat basophil cells were maintained in a single-layer culture in RPMI 1640 medium supplemented with 10% foetal calf serum (Gibco). […]

[2] = molecular target: T1, murine Syk tyrosine kinase protein (GST:Syk 6-242) (Mus musculus, UniProt P48025); experiment: ADA method: displacement of the binding of scFv G4G11 with Syk (ELISA); conditions: small molecules at 10 μM, scFv G4G11 100 nM; for inhibition at 10 µM: read-out: In vit. inhib.: mean inhibition % of the binding of scFv G4G11 with Syk in the ADA method
T1 construct: made in house
How it was run: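 GST:Syk 6-242 (murine) was immobilised at 10 μg ml^−1 and pre-incubated 1 h at ambient temperature with compounds at 10 μM final in PBS. scFv G4G11 was then added at 100 nM for 1 h. Bound scFv was detected via its C-terminal c-myc tag with HRP-9E10, and % inhibition was taken from signals with versus without compound.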

[3] = tested on: RBL-2H3 cells; experiment: cells; type: cell-based, rat; conditions: RBL-2H3 cells; for IC50: Rattus norvegicus, read-out: Degran. IC50: concentration inhibiting mast cell degranulation by 50%
How it was run: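 RBL-2H3 rat basophils sensitized 12-16 h with anti-DNP IgE (0.5 μg/ml), pretreated 90 min at 37° C with compound (DMF 0.25% vehicle), then stimulated 45 min with DNP-BSA (50 ng ml^−1) or ionomycin (1.5 μM). Degranulation read as β-hexosaminidase release.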

| Compound | percentage of live BMMC cells [1] [%] | inhibition at 10 µM [2] [%] | IC50 [3] [µg/mL] | In vit. inhib.: mean inhibition % of the binding of scFv G4G11 with Syk in the ADA method [2] [%] | Degran. IC50: concentration inhibiting mast cell degranulation by 50% [3] [µg/mL] |
| --- | --- | --- | --- | --- | --- |
| CN[C@@H]1C[C@H]2O[C@@](C)([C@@H]1OC)n1c3ccccc3c3c4c(c5c6ccccc6n2c5c31)C(=O)NC4 [Staurosporine, reference compound] | 16 | – | – | – | – |
| CN(C)S(=O)(=O)c1ccc(C(=O)C2=C(O)C(=O)N(CCN3CCOCC3)C2c2ccccc2)cc1 (stereo not drawn) [Molecule 32, 4-({4-hydroxy-1-[2-(4-morpholinyl)ethyl]-5-oxo-2-phenyl-2,5-dihydro-1H-pyrrol-3-yl}carbonyl)-N,N-dimethylbenzenesulphonamide] | – | 50 | > 10 | – | – |
| Cc1cc(C)c(OCC(=O)N2CCN(C(=O)COc3c(C)cc(C)cc3C)CC2)c(C)c1 [Molecule 58, 1,4-bis [(mesityloxy)acetyl] piperazine] | – | 40 | ~10 (≈ 22.8 µM) | – | – |
| COc1ccccc1C1C(C(=O)c2cc(C)ccc2C)=C(O)C(=O)N1CCN1CCOCC1 (stereo not drawn) [Molecule 7, 4-(2,5-dimethylbenzoyl)-3-hydroxy-5-(2-methoxyphenyl)-1-[2-(4-morpholinyl)ethyl]-1,5-dihydro-2H-pyrrol-2-one] | – | 72 | > 10 | – | – |
| COC(=O)c1sc(N2C(=O)C(O)=C(C(=O)c3ccccc3)C2c2ccc(C)cc2)nc1C (stereo not drawn) [Molecule 16, methyl 2-[3-benzoyl-4-hydroxy-2-(4-methylphenyl)-5-oxo-2,5-dihydro-1H-pyrrol-1-yl]-4-methyl-1,3-thiazole-5-carboxylate] | – | 67 | > 10 | – | – |
| COc1cccc(C2C(C(=O)c3ccc(F)cc3)=C(O)C(=O)N2CCCN2CCOCC2)c1 (stereo not drawn) [Molecule 24, 4-(4-fluorobenzoyl)-3-hydroxy-5-(3-methoxyphenyl)-1-[3-(4-morpholinyl)propyl]-1,5-dihydro-2H-pyrrol-2-one] | – | 57 | > 10 | – | – |
| O=C(Nc1ccccc1C(=O)N1CCCC1)c1ccc(CN2CCc3ccccc3C2)cc1 [Molecule 78, 4-(3,4-dihydro-2(1H)-isoquinolinyl-methyl)-N-[2-(1-pyrrolidinylcarbonyl)phenyl]benzamide] | – | 25 | > 10 | – | – |
| COc1cc(C2C(C(=O)c3ccc(Cl)cc3)=C(O)C(=O)N2CCCN2CCOCC2)cc(OC)c1OC (stereo not drawn) [Molecule 25, 4-(4-chlorobenzoyl)-3-hydroxy-1-[3-(4-morpholinyl)propyl]-5-(3,4,5-trimethoxyphenyl)-1,5-dihydro-2H-pyrrol-2-one] | – | 56.5 | > 10 | – | – |
| COC(=O)c1ccc(NC(=O)CN(c2cccc(OC)c2)S(=O)(=O)c2ccccc2)cc1 [Molecule 81] | – | 20 | > 10 | – | – |
| Cn1c(SCC(=O)NCC2CCCO2)nnc1-c1ccc(NC(=O)c2ccccc2Cl)cc1 (stereo not drawn) [Molecule 47] | – | 47.5 | > 10 | – | – |
| Cc1ccc(S(=O)(=O)N(CC(=O)N2CCN(Cc3ccccc3)CC2)c2ccc(C)c(C)c2)cc1 [Molecule 48, N-[2-(4-benzyl-1-piperazinyl)-2-oxoethyl]-N-(3,4-dimethylphenyl)-4-methylbenzenesulphonamide] | – | 47 | > 10 | – | – |
| CCOC(=O)c1[nH]c(N2C(=O)C(O)=C(C(=O)c3ccccc3)C2c2ccc(OC)cc2)nc1C (stereo not drawn) [Molecule 12] | – | 69 | > 10 | – | – |
| COc1cccc(C2C(C(=O)c3cc(C)ccc3C)=C(O)C(=O)N2CCCN2CCOCC2)c1OC (stereo not drawn) [Molecule 56, 5-(2,3-dimethoxyphenyl)-4-(2,5-dimethylbenzoyl)-3-hydroxy-1-[3-(4-morpholinyl)propyl]-1,5-dihydro-2H-pyrrol-2-one] | – | 42 | ~10 (≈ 20.2 µM) | – | – |
| CN(C)CCCN1C(=O)C(O)=C(C(=O)c2ccc(S(=O)(=O)N(C)C)cc2)C1c1ccc(Cl)c(Cl)c1 (stereo not drawn) [Molecule 50, 4-({2-(3,4-dichlorophenyl)-1-[3-(dimethylamino)propyl]-4-hydroxy-5-oxo-2,5-dihydro-1H-pyrrol-3-yl}carbonyl)-N,N-dimethylbenzenesulphonamide] | – | 46.5 | > 10 | – | – |
| CCOC(=O)C1CCN(C(=O)c2ccc(CN(c3ccc(C)c(C)c3)S(C)(=O)=O)cc2)CC1 [Molecule 80, ethyl 1-(4-{[(3,4-dimethylphenyl) (methyl sulphonyl)amino]methyl}benzoyl)-4-piperidine carboxylate] | – | 24.5 | > 10 | – | – |
| COc1ccc(C2C(C(=O)c3ccc(F)cc3)=C(O)C(=O)N2CCN2CCOCC2)c(OC)c1 (stereo not drawn) [Molecule 33] | – | 50 | > 10 | – | – |
| COc1ccc(C2C(C(=O)c3ccc(Cl)cc3)=C(O)C(=O)N2CCN2CCOCC2)cc1OC (stereo not drawn) [Molecule 27, 4-(4-chlorobenzoyl)-5-(3,4-dimethoxyphenyl)-3-hydroxy-1-[2-(4-morpholinyl)ethyl]-1,5-dihydro-2H-pyrrol-2-one] | – | 55 | > 10 | – | – |
| Cc1cccc(OCC(=O)Nc2cccc3c(NC(=O)COc4cccc(C)c4)cccc23)c1 [Molecule 20] | – | 60 | > 10 | – | – |
| Cc1ccc(-c2nnc(N3CCN(C(=O)CSc4nc(C)cc(C)n4)CC3)c3ccccc23)cc1 [Molecule 87, 1-(4-{[(4,6-dimethyl-2-pyrimidinyl)thio]acetyl}-1-piperazinyl)-4-(4-methylphenyl) phthalazine] | – | 11 | ~5 (≈ 10.3 µM) | – | – |
| COc1ccc(C2C(C(=O)c3ccc(F)cc3)=C(O)C(=O)N2CCN2CCOCC2)cc1OC (stereo not drawn) [Molecule 31, 5-(3,4-dimethoxyphenyl)-4-(4-fluorobenzoyl)-3-hydroxy-1-(2-(4-morpholinyl)ethyl]-1,5-dihydro-2H-pyrrol-2-one] | – | 50 | > 10 | – | – |
| O=C(CCCN1C(=O)c2ccccc2C1=O)Nc1sc2c(c1C(=O)NCC1CCCO1)CCC2 (stereo not drawn) [Molecule 30] | – | 51 | > 10 | – | – |
| COc1cccc(C2C(C(=O)c3ccc(C)o3)=C(O)C(=O)N2CCN2CCOCC2)c1 (stereo not drawn) [Molecule 53, 3-hydroxy-5-(3-methoxyphenyl)-4-(5-methyl-2-furoyl)-1-[2-(4-morpholinyl)ethyl]-1,5-dihydro-2H-pyrrol-2-one] | – | 45.5 | > 10 | – | – |
| COc1ccc(C2C(C(=O)c3ccc(Cl)cc3)=C(O)C(=O)N2CCN2CCOCC2)cc1OC (stereo not drawn) [Molecule 36, 4-(4-chlorobenzoyl)-5-(3,4-dimethoxyphenyl)-3-hydroxy-1-[2-(4-morpholinyl)ethyl]-1,5-dihydro-2H-pyrrol-2-one] | – | – | – | 50 | >10 |
